The target in the experiment is Orai1 (Homo sapiens, UniProt Q96D31). The experiment can be described thus: patch-clamp electrophysiology in Orai1-transfected HEK293 cells. The experiment is classed as cell-based. The text has this:
patch-clamp electrophysiology in Orai1-transfected HEK293 cells on Orai1 | Electrophysiological recordings in Orai1-transfected HEK293 cells also confirmed that JPIII is a potent Orai1 inhibitor with an IC50 of […]
A general note: In patch-clamp work, channel activity is measured electrically.

Orai1, sequence (Q96D31 whole entry): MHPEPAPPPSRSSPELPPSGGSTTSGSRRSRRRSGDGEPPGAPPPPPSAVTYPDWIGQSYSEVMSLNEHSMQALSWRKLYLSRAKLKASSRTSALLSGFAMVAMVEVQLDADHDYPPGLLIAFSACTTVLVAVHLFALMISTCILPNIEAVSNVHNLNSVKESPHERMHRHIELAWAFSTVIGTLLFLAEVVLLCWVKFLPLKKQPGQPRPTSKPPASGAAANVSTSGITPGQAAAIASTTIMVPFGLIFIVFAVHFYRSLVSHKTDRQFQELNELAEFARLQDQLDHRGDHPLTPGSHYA

A word on the IC50: it is the midpoint of a concentration-inhibition curve. Read a high IC50 as weaker potency in that assay. Compound `COc1ccc(OC)c(-c2ccc(NCc3ccncc3)cc2)c1` [JPIII, 4-(2,5-dimethoxyphenyl)-N-[(pyridin-4-yl)methyl]aniline] yielded an IC50 of 244 ± 39 nM.

The values above are taken from paper PMC6970549, “Orai1 Channel Inhibition Preserves Left Ventricular Systolic Function and Normal Ca^2+ Handling After Pressure Overload” (Circulation, 2020).
